For the data set, the system named is KIA cells. In words: Subcutaneous KIA cell allograft in nude mice (primary tumor, lung metastasis, collagen). In kind it is in vivo. To be noted: 1 mg/kg or 3 mg/kg intraperitoneal every other day for 3 weeks. The source says:
Generation of Hif1α^fl/fl mice (Ryan et al., 2000, Cancer Res 60(15):4010-5) and LSL-Kras^G12D/+Trp53^fl/fl mice has been previously described (Kirsch et al., 2007, Nat Med 13(8):992-7). These mice were crossed to create the LSL-Kras^G12D/+Trp53^fl/flHif1a^fl/fl animals. Soft tissue sarcomas were generated by intramuscular injection of a calcium phosphate precipitate of Ad-Cre (Gene Transfer Vector Core, University of Iowa). For transplant tumors 1×106 KIA (derived from LSL-Kras^G12D/+[…] tumors) were injected subcutaneously into the flanks of nu/nu mice (Charles River Laboratories). In each experiment 10 mice per experimental group were used with each mouse bearing two subcutaneous tumors. Tumors developed after 3-5 days, were monitored every other day, and animals were euthanized after 20-30 days. For in vivo lung metastasis analysis lung tissues were removed, and sections were stained with hematoxylin and eosin. Images were acquired using a Nikon SMZ800 stereoscope with a Nikon 1200F digital camera and Nikon Act-1 software. The ratio of total metastatic sarcoma foci to total lung area (% tumor burden) was determined using ImagePro 6.3 software (Media Cybernetics Inc.). Additionally, the percent of animals in the entire cohort with metastatic foci was evaluated along with total number of metastatic foci per experiment and the averae number of sarcoma lung foci per lung in each experiment. For Minoxidil injections, allografts and drug treatments were started simultaneously. Mice bearing subcutaneous KIA tumors on each flank were intraperitoneal injected with PBS, 1 mg/kg Minoxidil, or 3 mg/kg Minoxidil every other day unless the animals were euthanized, the tumors and lungs removed.
Immunohistochemistry of tissue sections with antibodies to HIF1α (Abcam) and Lectin (Vector Labs) was performed using enzymatic Avidin-Biotin Complex (ABC)-diaminobenzidine (DAB) staining (Vector Labs). Nuclei were counterstained with hematoxylin. […] Collagen was quantified using Image-Pro software. […]

Entries after “also recorded” stand apart in the source; their conditions may differ.

As to `Nc1cc(N2CCCCC2)nc(N)[n+]1[O-]` [Minoxidil], the overall animal health/weight entry is reported as “no effect; also recorded: unaffected”, the primary tumor volume entry is given as “no effect” and the “tumor weight (mass)” value is “no effect”.

(Values after US20140356287A1, “PLOD2 as a Target of Intervention for Sarcoma Metastasis” (The Trustees of the University of Pennsylvania, priority 2013, published 2014).)
